Values joined by “and” are separate entries in the source; they are usually repeats but may differ in a detail not shown here. Identical values can stand only once. “Also recorded” adds a separate entry of the source.
Legend:
[1] = target: MAT2A (Homo sapiens, UniProt P31153); experiment: MAT2A enzymatic assay (colorimetric Phosphate Assay Kit-PiColorLock); type: biochemical; details: for MAT2A inhibitory activity (in words): up to 10 μM; for Maximum Inhibition (%): MAT2A enzymatic assay; for IC50: mean ± SD, at least three independent experiments, NA: no activity at 10 μM
Procedure: The inhibition of MAT2A by each compound was determined using the colorimetric Phosphate Assay Kit-PiColorLock (#ab270004) as described previously. […] Assay measurements were performed in 1X buffer containing 50 mM Tris, 50 mM KCl, 10 mM MgCl2, and 0.05% Brij-35 (pH 8.0) in a final assay volume of 5 μL. A total of 2.5 μL of MAT2A protein with a final concentration of 20 μg/mL was added to each well of a 384 well assay plate containing 100 nL of each concentration of test compound dissolved in DMSO and incubated for 30 min at room temperature. ATP (100 μM final concentration) and L-Met (100 μM final concentration) were subsequently added and incubated for 30 min at room temperature. Then 20 μL of the phosphate assay kit substrate was added to each well, incubated at room temperature for 30 min, and then the absorbance was measured at 620 nm on a plate reader.

[2] = Cytotoxicity of new compounds in HEK293A; type: cell-based; details: human, HEK293A cells
[3] = system: Parental HCT116 cells; experiment: Cellular antiproliferation assay (CCK8), parental HCT116; type: cell-based; details: Homo sapiens, HCT-116, 72 h, mean ± SD
[4] = system: MTAP−/− HCT116 cells; experiment: Cellular antiproliferation assay (CCK8), MTAP-deleted HCT116; type: cell-based; details: Homo sapiens, HCT-116, 72 h, mean ± SD
Procedure: Cell viability assays were performed using Cell Counting Kit-8 (CCK8). Briefly, the MTAP-deleted HCT116 cells (Horizon) were plated at 1000 cells per well in 96-well plates in RPMI-1640 medium with 10% FBS and 1% PS, and then incubated at 37 °C under a 5% CO2 atmosphere overnight. The stock solutions were serially diluted 3-fold in DMSO to obtain an eight-point dilution curve with final compound concentrations and test compounds added. After 72 h, 10 μL CCK-8 dye was added in each well and the cells were incubated for 2–4 h. […] was measured at 450 nm. Dose response curves were analyzed in GraphPad Prism 8.

[5] = system: HCT116 MTAP-deleted xenograft tumor; type: in vivo; details: for tumor growth inhibition (TGI): 30 mg/kg orally q.d. for 19 days; for tumor growth inhibition (TGI) / T/C (%) relative tumor proliferation rate: BALB/c nude mice, HCT116 MTAP−/− xenograft; for T/C (%) relative tumor proliferation rate / Tumor volume / Histopathological analysis (H&E staining) of tumor tissues: 30 mg/kg orally q.d.; for Tumor volume: mean ± SD, at end of study; for Histopathological analysis (H&E staining) of tumor tissues: xenograft tumor tissue
Procedure: The antitumor efficacy of compound 17 was evaluated in female BALB/c nude mice using a standardized tumor xenotransplantation model. Animals were maintained under specific-pathogen-free (SPF) conditions, and all experimental procedures adhered to institutional animal care protocols approved by the Institute of Radiation Medicine, the Chinese Academy of Medical Sciences, and Peking Union Medical College, complying with national guidelines for humane treatment. For tumor induction, 2 × 10^6 HCT-116 MTAP^−/− cells suspended in PBS were subcutaneously implanted into the right hind flank. Following a 7-day engraftment period, mice were stratified into three cohorts (n = 5/group) via block randomization performed by an independent researcher to minimize selection bias. Compound 17 was administered orally at 30 mg/kg once daily, using 5% DMSO + 10% Solutol HS-15 + 85% saline as the vehicle solution. The positive control AG-270 was dosed at the same regimen (30 mg/kg, orally, once daily) with identical vehicle composition. Tumor progression was monitored every other day through digital caliper measurements, with volumes calculated using the ellipsoid approximation formula: V = 0.5 × length × width^2.

Chain of MAT2A (P31153 whole entry): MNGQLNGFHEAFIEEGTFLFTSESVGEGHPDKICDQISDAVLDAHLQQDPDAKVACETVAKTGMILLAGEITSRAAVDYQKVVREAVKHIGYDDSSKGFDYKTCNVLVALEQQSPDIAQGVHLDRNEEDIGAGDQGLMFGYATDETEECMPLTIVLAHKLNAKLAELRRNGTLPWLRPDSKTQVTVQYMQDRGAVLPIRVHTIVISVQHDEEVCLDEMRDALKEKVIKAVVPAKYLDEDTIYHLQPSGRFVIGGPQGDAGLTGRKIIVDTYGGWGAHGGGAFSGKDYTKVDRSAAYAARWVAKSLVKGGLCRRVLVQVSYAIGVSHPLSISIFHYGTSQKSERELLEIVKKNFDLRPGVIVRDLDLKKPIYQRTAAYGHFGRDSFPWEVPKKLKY

SMILES | IC50 [2] | Maximum Inhibition (%) [1] | IC50 [1] | further results
COc1ccc(NC(=O)c2cccc3ncsc23)cc1 [Compound 16, N-(4-Methoxyphenyl)benzo[D]thiazole-7-carboxamide] | > 100 µM | – | – | MAT2A inhibitory activity (in words) [1]: complete loss of binding affinity; also recorded: abolished activity entirely
CCOC(=O)c1[nH]c2c(c1-c1ccccc1)C(=O)CC(c1ccccc1)C2 (centres unmarked) [Compound 8, Ethyl 4-Oxo-3,6-diphenyl-4,5,6,7-tetrahydro-1H-indole-2-carboxylate] | > 100 µM | 47% | 6800 ± 200 nM | –
CN(C)c1nc(=O)n(-c2ccccc2)c2cc(Cl)ccc12 [6 (AZ-28), AZ-28, reference compound] | – | – | – | IC50 [3]: 1.9 ± 0.2 µM; IC50 [4]: 350 ± 130 nM
COc1ccc(-c2c(Nc3ccccn3)[nH]c3c(C4=CCCCC4)c(-c4ccccc4)nn3c2=O)cc1 [AG-270, reference compound] | – | – | – | tumor growth inhibition (TGI) [5]: 80.4%; T/C (%) relative tumor proliferation rate [5]: 22.9%; Tumor volume [5]: 351.9 ± 96.1 mm3; Histopathological analysis (H&E staining) of tumor tissues [5]: reduced cellular proliferation
CCOC(=O)c1[nH]c2c(c1Cc1ccccc1)C(=O)CC(c1ccccc1)C2 (centres unmarked) [Compound 9, Ethyl 3-Benzyl-4-oxo-6-phenyl-4,5,6,7-tetrahydro-1H-indole-2-carboxylate] | > 100 µM | – | – | MAT2A inhibitory activity (in words) [1]: no detectable activity; also recorded: inactive
CCn1cc(C(=O)Nc2ccc(OC)cc2)c2cccnc21 [Compound 12] | > 100 µM | 86% | 2900 ± 200 nM | –
CCOC(=O)c1[nH]c2c(c1Cc1ccccc1)C(=O)CC(C)(C)C2 [Compound 10] | > 100 µM | – | – | MAT2A inhibitory activity (in words) [1]: no detectable activity; also recorded: inactive
Cn1cc(C(=O)Nc2ccc3c(c2)OCO3)c2ccccc21 [Compound 14] | > 100 µM | – | – | MAT2A inhibitory activity (in words) [1]: completely lost its binding affinity; also recorded: abolished activity entirely
CCOC(=O)c1[nH]c2c(c1Cc1ccccc1OC)C(=O)CC(c1ccc(OC)cc1)C2 (centres unmarked) [Compound A10] | 55.6 ± 7.8 µM | 65% | 4600 ± 300 nM | –
COc1ccc(NC(=O)c2cn(C)c3ncccc23)cc1F [Compound A11] | > 100 µM | 76% | 4600 nM and 2500 nM | IC50 [3]: > 10 µM; IC50 [4]: 6000 ± 400 nM
COc1ccc(NC(=O)c2cccc(-n3cccc3)c2)cc1 [Compound 17, N-(4-Methoxyphenyl)-3-(1H-pyrrol-1-Yl)benzamide] | > 100 µM | 84% | 430 ± 60 nM | IC50 [3]: > 10 µM; tumor growth inhibition (TGI) [5]: 58.4%; T/C (%) relative tumor proliferation rate [5]: 44.4%; Tumor volume [5]: 659.9 ± 100.2 mm3; Histopathological analysis (H&E staining) of tumor tissues [5]: reduced cellular proliferation; IC50 [4]: 1400 ± 300 nM
COc1ccc(NC(=O)c2cccc(N3CCCCC3)c2)cc1 [Compound 18, N-(4-Methoxyphenyl)-3-(piperidin-1-Yl)benzamide] | > 100 µM | 72% | 780 ± 150 nM | –
COc1ccc(NC(=O)c2cn(C)c3ccccc23)cc1 [Compound 13, N-(4-Methoxyphenyl)-1-methyl-1H-indole-3-carboxamide] | > 100 µM | 82% | 2100 ± 600 nM | –
CCOC(=O)c1c(C)c(C(=O)Nc2ccc(OC)cc2)c(C)n1C [Compound 11] | > 100 µM | – | 15600 ± 3100 nM | –
COc1ccc(NC(=O)c2ccc3scnc3c2)cc1 [Compound 15, N-(4-Methoxyphenyl)benzo[D]thiazole-5-carboxamide] | > 100 µM | 80% | 910 ± 90 nM | IC50 [3]: > 10 µM; IC50 [4]: 2200 ± 100 nM

Source: paper PMC12113668, “Discovery of Potential Scaffolds for Methionine Adenosyltransferase 2A (MAT2A) Inhibitors: Virtual Screening, Synthesis, and Biological Evaluation” (Molecules, 2025)
